{"source": "paper PMC11619344", "about": "(Antimicrobial Agents and Chemotherapy, 2024)", "key": {"[1]": {"system": "ST512/KPC-31 mutant IMI 1.1", "test": "MIC, broth microdilution", "assay_type": "cell-based", "conditions": "Klebsiella pneumoniae"}, "[2]": {"system": "ST512/KPC-31 mutant IMI 1.2", "test": "MIC, broth microdilution", "assay_type": "cell-based", "conditions": "Klebsiella pneumoniae"}, "[3]": {"system": "K. pneumoniae ST512/KPC-31 (KPC-3 D179Y) parental clinical isolate", "test": "MIC, broth microdilution", "assay_type": "cell-based", "conditions": "Klebsiella pneumoniae"}, "[4]": {"system": "ST512/KPC-31 mutant IMI 3.2", "test": "MIC, broth microdilution", "assay_type": "cell-based", "conditions": "Klebsiella pneumoniae"}, "[5]": {"system": "K. pneumoniae ST258/KPC-35 (KPC-2 L169P) parental clinical isolate", "test": "MIC, broth microdilution", "assay_type": "cell-based", "conditions": "Klebsiella pneumoniae"}, "[6]": {"system": "ST258/KPC-35 mutant IMI 2.1", "test": "MIC, broth microdilution", "assay_type": "cell-based", "conditions": "Klebsiella pneumoniae"}, "[7]": {"system": "K. pneumoniae ST512/KPC-31", "test": "In vitro resistance dynamics (stepwise, 7 days)", "assay_type": "cell-based, Klebsiella pneumoniae", "conditions": "stepwise resistance development, MH broth, up to 64× MIC"}, "[8]": {"system": "ST512/KPC-31 mutant IMI 3.1", "test": "MIC, broth microdilution", "assay_type": "cell-based", "conditions": "Klebsiella pneumoniae"}, "[9]": {"system": "ST512/KPC-31 mutant IMI 2.1", "test": "MIC, broth microdilution", "assay_type": "cell-based", "conditions": "Klebsiella pneumoniae"}, "[10]": {"system": "ST258/KPC-35 mutant IMI 3.1", "test": "MIC, broth microdilution", "assay_type": "cell-based", "conditions": "Klebsiella pneumoniae"}, "[11]": {"system": "K. pneumoniae ST512/KPC-31 (KPC-3 D179Y)", "test": "Single-step mutant frequencies and mutant prevention concentrations", "assay_type": "cell-based, Klebsiella pneumoniae", "conditions": "for Imipenem mutant frequency: MH agar, 48 h", "procedure": "(§1) The plates were incubated for 48 h at 37°C before the frequency of resistance emergence was calculated as the ratio of the number of colony forming units (CFUs) grown on the antibiotic-containing plate and the number of CFUs on antibiotic-free plates. Mutant prevention concentrations were defined as the lowest concentration of antibiotic combination for which there were zero colonies on all agar plates ([23]). All determinations were conducted in triplicate."}, "[12]": {"system": "K. pneumoniae ST258/KPC-35 (KPC-2 L169P)", "test": "Single-step mutant frequencies and mutant prevention concentrations", "assay_type": "cell-based, Klebsiella pneumoniae", "conditions": "for Imipenem mutant frequency: MH agar, 48 h", "procedure": "as §1"}, "E. coli HB4": {"system": "E. coli HB4", "test": "MIC of recombinant strains", "assay_type": "cell-based", "conditions": "Escherichia coli; E. coli HB4 (OmpC- and OmpF-deficient), no KPC", "procedure": "(§2) 14.0 (www.eucast.org/clinical_breakpoints).\n(§3) Recombinant strains were selected in 10 mg/L of gentamicin-LB agar plates. The β-lactam MICs were determined for the transformants according to the above-described methodology."}, "E. coli HB4 KPC-2": {"system": "E. coli HB4 KPC-2", "test": "MIC of recombinant strains", "assay_type": "cell-based", "conditions": "Escherichia coli, HB4KPC2; E. coli HB4 expressing KPC-2 in pUCP24", "procedure": "as §2, §3"}, "[13]": {"system": "E. coli HB4 KPC-35 (KPC-2 L169P)", "test": "MIC of recombinant strains", "assay_type": "cell-based", "conditions": "Escherichia coli; E. coli HB4 expressing KPC-35 (KPC-2 L169P) in pUCP24", "procedure": "as §2, §3"}, "E. coli HB4 KPC-2 L169A": {"system": "E. coli HB4 KPC-2 L169A", "test": "MIC of recombinant strains", "assay_type": "cell-based", "conditions": "Escherichia coli, HB4KPC2L169A; E. coli HB4 expressing KPC-2 L169A in pUCP24", "procedure": "as §2, §3"}, "E. coli HB4 KPC-2 L169T": {"system": "E. coli HB4 KPC-2 L169T", "test": "MIC of recombinant strains", "assay_type": "cell-based", "conditions": "Escherichia coli, HB4KPC2L169T; E. coli HB4 expressing KPC-2 L169T in pUCP24", "procedure": "as §2, §3"}, "E. coli HB4 KPC-3 D179N": {"system": "E. coli HB4 KPC-3 D179N", "test": "MIC of recombinant strains", "assay_type": "cell-based", "conditions": "Escherichia coli, HB4KPC3D179N; E. coli HB4 expressing KPC-3 D179N in pUCP24", "procedure": "as §2, §3"}, "[14]": {"system": "E. coli HB4 KPC-31 (KPC-3 D179Y)", "test": "MIC of recombinant strains", "assay_type": "cell-based", "conditions": "Escherichia coli; E. coli HB4 expressing KPC-31 (KPC-3 D179Y) in pUCP24", "procedure": "as §2, §3"}, "E. coli HB4 KPC-3": {"system": "E. coli HB4 KPC-3", "test": "MIC of recombinant strains", "assay_type": "cell-based", "conditions": "Escherichia coli, HB4KPC3; E. coli HB4 expressing KPC-3 in pUCP24", "procedure": "as §2, §3"}, "[15]": {"system": "ST258/KPC-35 mutant IMI 3.2", "test": "MIC, broth microdilution", "assay_type": "cell-based", "conditions": "Klebsiella pneumoniae"}, "[16]": {"system": "ST258/KPC-35 mutant IMI 2.2", "test": "MIC, broth microdilution", "assay_type": "cell-based", "conditions": "Klebsiella pneumoniae"}, "[17]": {"system": "ST512/KPC-31 mutant IMI 2.2", "test": "MIC, broth microdilution", "assay_type": "cell-based", "conditions": "Klebsiella pneumoniae"}, "KPC-3 D179N": {"target": "T1, KPC-3 D179N (Klebsiella pneumoniae, UniProt Q9F663, D178N/H272Y)", "T1 construct": "made in house; host or cells: E. coli HB4 (porin-deficient), plasmid pUCP24", "test": "Specific β-lactamase activity against imipenem, crude extract", "assay_type": "biochemical", "conditions": "hydrolysis of imipenem by KPC-3 D179N crude extract, 297 nm", "procedure": "(§4) Cultures were centrifuged at 3,500 × g, 15 min at 4°C, resuspended in 10 mL of phosphate-buffered saline (PBS; pH ~7.4) and sonicated with Ultraschall Prozessor UP 200S Hielscher (Teltow, Germany)."}, "KPC-3": {"target": "T2, KPC-3 (Klebsiella pneumoniae, UniProt Q9F663, H272Y)", "T2 construct": "made in house; host or cells: E. coli HB4 (porin-deficient), plasmid pUCP24", "test": "Specific β-lactamase activity against imipenem, crude extract", "assay_type": "biochemical", "conditions": "hydrolysis of imipenem by KPC-3 crude extract, 297 nm", "procedure": "as §4"}, "KPC-2": {"target": "T3, KPC-2 (Klebsiella pneumoniae, UniProt Q9F663)", "T3 construct": "made in house; host or cells: E. coli HB4 (porin-deficient), plasmid pUCP24", "test": "Specific β-lactamase activity against imipenem, crude extract", "assay_type": "biochemical", "conditions": "hydrolysis of imipenem by KPC-2 crude extract, 297 nm", "procedure": "as §4"}, "KPC-2 L169A": {"target": "T4, KPC-2 L169A (Klebsiella pneumoniae, UniProt Q9F663, L168A)", "T4 construct": "made in house; host or cells: E. coli HB4 (porin-deficient), plasmid pUCP24", "test": "Specific β-lactamase activity against imipenem, crude extract", "assay_type": "biochemical", "conditions": "hydrolysis of imipenem by KPC-2 L169A crude extract, 297 nm", "procedure": "as §4"}, "KPC-2 L169T": {"target": "T5, KPC-2 L169T (Klebsiella pneumoniae, UniProt Q9F663, L168T)", "T5 construct": "made in house; host or cells: E. coli HB4 (porin-deficient), plasmid pUCP24", "test": "Specific β-lactamase activity against imipenem, crude extract", "assay_type": "biochemical", "conditions": "hydrolysis of imipenem by KPC-2 L169T crude extract, 297 nm", "procedure": "as §4"}, "[18]": {"system": "ST258/KPC-35 mutant IMI 1.2", "test": "MIC, broth microdilution", "assay_type": "cell-based", "conditions": "Klebsiella pneumoniae"}, "[19]": {"system": "K. pneumoniae ST258/KPC-35", "test": "In vitro resistance dynamics (stepwise, 7 days)", "assay_type": "cell-based, Klebsiella pneumoniae", "conditions": "stepwise resistance development, MH broth, up to 64× MIC"}, "[20]": {"system": "ST258/KPC-35 mutant IMI 1.1", "test": "MIC, broth microdilution", "assay_type": "cell-based", "conditions": "Klebsiella pneumoniae"}, "[21]": {"conditions": "fold higher than the MIC of the parental strain"}, "[22]": {"conditions": "relebactam fixed at 4 mg/L in the combination"}}}
{"molecule": "C[C@@H](O)[C@H]1C(=O)N2C(C(=O)O)=C(SCCN=CN)C[C@H]12", "note": "[IMI, imipenem]", "values": [{"measurement": "MIC", "setting": "[1]", "result": "> 256", "unit": "µg/mL"}, {"measurement": "MIC", "setting": "[2]", "result": "> 256", "unit": "µg/mL"}, {"measurement": "MIC", "setting": "[3]", "result": 0.125, "unit": "µg/mL"}, {"measurement": "MIC", "setting": "[4]", "result": 32, "unit": "µg/mL"}, {"measurement": "MIC", "setting": "[5]", "result": 0.5, "unit": "µg/mL"}, {"measurement": "MIC", "setting": "[6]", "result": "> 256", "unit": "µg/mL"}, {"measurement": "Day on which 64× MIC values were reached", "setting": "[7]", "result": 5, "unit": "days"}, {"measurement": "MIC", "setting": "[8]", "result": 32, "unit": "µg/mL"}, {"measurement": "MIC", "setting": "[9]", "result": "> 256", "unit": "µg/mL"}, {"measurement": "MIC", "setting": "[10]", "result": 128, "unit": "µg/mL"}, {"measurement": "Mutant prevention concentration relative to baseline MIC", "setting": "[11]; [21]", "result": 64, "unit": "fold"}, {"measurement": "Imipenem mutant frequency", "setting": "[11]; imipenem concentration 2 mg/L", "result": "1.29×10^−8"}, {"measurement": "Imipenem mutant frequency", "setting": "[11]; imipenem concentration 4 mg/L", "result": "6.10×10^−10"}, {"measurement": "Imipenem mutant frequency", "setting": "[11]; imipenem concentration 8 mg/L", "result": "≤ 2.44×10^−11"}, {"measurement": "Mutant prevention concentration", "setting": "[11]; [22]", "result": 8, "unit": "mg/L"}, {"measurement": "Mutant prevention concentration relative to baseline MIC", "setting": "[12]; [21]", "result": 16, "unit": "fold"}, {"measurement": "Imipenem mutant frequency", "setting": "[12]; imipenem concentration 2 mg/L", "result": "8.22×10^−9"}, {"measurement": "Imipenem mutant frequency", "setting": "[12]; imipenem concentration 4 mg/L", "result": "5.08×10^−10"}, {"measurement": "Imipenem mutant frequency", "setting": "[12]; imipenem concentration 8 mg/L", "result": "≤ 1.69×10^−11"}, {"measurement": "Mutant prevention concentration", "setting": "[12]; [22]", "result": 8, "unit": "mg/L"}, {"measurement": "MIC", "setting": "E. coli HB4", "result": 0.125, "unit": "µg/mL"}, {"measurement": "MIC", "setting": "E. coli HB4 KPC-2", "result": 32, "unit": "µg/mL"}, {"measurement": "MIC", "setting": "[13]", "result": 0.25, "unit": "µg/mL"}, {"measurement": "MIC", "setting": "E. coli HB4 KPC-2 L169A", "result": 8, "unit": "µg/mL"}, {"measurement": "MIC", "setting": "E. coli HB4 KPC-2 L169T", "result": 16, "unit": "µg/mL"}, {"measurement": "MIC", "setting": "E. coli HB4 KPC-3 D179N", "result": 0.25, "unit": "µg/mL"}, {"measurement": "MIC", "setting": "[14]", "result": 0.25, "unit": "µg/mL"}, {"measurement": "MIC", "setting": "E. coli HB4 KPC-3", "result": 16, "unit": "µg/mL"}, {"measurement": "MIC", "setting": "[15]", "result": 128, "unit": "µg/mL"}, {"measurement": "MIC", "setting": "[16]", "result": "> 256", "unit": "µg/mL"}, {"measurement": "MIC", "setting": "[17]", "result": "> 256", "unit": "µg/mL"}, {"measurement": "Specific activity", "setting": "KPC-3 D179N", "result": 0.02, "unit": "µmol/min/mg"}, {"measurement": "Specific activity", "setting": "KPC-3", "result": 2.5, "unit": "µmol/min/mg"}, {"measurement": "Specific activity", "setting": "KPC-2", "result": 0.55, "unit": "µmol/min/mg"}, {"measurement": "Specific activity", "setting": "KPC-2 L169A", "result": 0.1, "unit": "µmol/min/mg"}, {"measurement": "Specific activity", "setting": "KPC-2 L169T", "result": 0.13, "unit": "µmol/min/mg"}, {"measurement": "MIC", "setting": "[18]", "result": 256, "unit": "µg/mL"}, {"measurement": "Day on which 64× MIC values were reached", "setting": "[19]", "result": 3, "unit": "days"}, {"measurement": "MIC", "setting": "[20]", "result": 256, "unit": "µg/mL"}]}
